Data from patent publication US8507547B2, “Anti-fatigue agents and oral compositions containing andrographolide as active ingredient” (Suntory Holdings Limited, priority 2007, dated 2013).

Tested on: Balb/c mice
Assay: Water-immersion and sleep-disturbance test (weight-loaded forced swimming test, swimming time)
Type: in vivo
Description: The first test is measurement of a swimming time in a water-immersion and sleep-disturbance test. This is described in detail below in Example 1. Mice raised in an environment, such as a water-immersed environment, where they were not allowed to take enough sleep or to take a comfortable posture so that they could take neither physical nor mental rest were weighted and forced to swim, and a length of time that passed until noses of the mice sank under the water for a period of 10 seconds or longer was measured (weight-loaded forced swimming test) to determine their fatigue level.
That is to say, since this animal model is a physical and mental fatigue model as well as an organ fatigue model described below, anti-fatigue action against physical and/or mental fatigue would be confirmed if the swimming time becomes longer as a result of administration of the test substance. Such anti-fatigue action is considered to be involved in reduction in fatigue stress, maintenance of physical energy under fatigue conditions (enhancement of body strength), improvement in endurance, and the like.
Effect of andrographolide on fatigue from water immersion and sleep disturbance was examined using a partially modified method of Tanaka et al. (Neuroscience Let. 352, 159-162, 2003). […] Four out of the five groups were reared as water-immersed groups; the groups were kept in cages in such a manner that each of the cages was filled with tap water at 23° C. with a water depth of 7 mm, instead of a floor covering, so that the mice were immersed in water and deprived of sleep. The mice were immersed in water for two days, andrographolide (Aldrich corp., purity 98%) was forcibly administered orally to the mice with doses of 0.5, 2, 8 mg per kilogram of body weight once daily during the two days (water-immersed and andrographolide-administered group). As a control group, one of the groups was immersed in water for two days, and distilled water was forcibly given orally to the group once daily during the two days (water-immersed control group). The remaining one of the five groups was reared as a normally-reared group; this group was kept in a cage with a normal floor covering, and distilled water was forcibly given orally to the group once daily during the two-day rearing (normally-reared control group). After the two days, each of the mice was provided with a weight corresponding to 8% of its body weight, which weight was attached to its tale, and then the mice were forced to swim in a water tank having a diameter of 18 cm and filled with water having a depth of 30 cm. A length of time that passed until the mice sank under water for a period of 10 seconds or longer (swimming time) was measured (weight-loaded forced swimming test).
The swimming time of the mice of the water-immersed group was shorter than that of the mice of the normally-reared group because of fatigue from the water immersion and sleep disturbance. The effect of andrographolide on the fatigue from the water immersion and sleep disturbance was examined by determining recovery of a reduction in the swimming time of the mice of the water-immersed group after the administration of andrographolide.
In accordance with the procedure described in Example 1, effect on water-immersion and sleep-disturbance fatigue was examined in a case in which andrographolide was administered alone to mice, a case in which alpha-lipoic acid was administered alone to mice, and a case in which a combination of andrographolide and alpha-lipoic acid was administered to mice. Eight-week-old male Balb/c mice were used as a test animal. […] Four out of the five groups served as water-immersed groups, and each of the groups was kept in a cage filled with tap water at 23° C. with a water depth of 7 mm, instead of a floor covering, so that the mice were immersed in water and deprived of sleep. […]

O=C(O)CCCCC1CCSS1 (stereo not drawn) [alpha-lipoic acid, 1,2-dithiolane-3-pentanoic acid, reference compound]
shortening of the swimming time (Example 5, FIG. 5, andrographolide 0.25 mg/kg (5a), alpha-lipoic acid 50 mg/kg (5b) or both (5c), orally once daily during two days of water immersion): prevented from shortening | increase rate of the swimming time (Example 5, swimming time of normally-reared group minus water-immersed control group = 100%, andrographolide 0.25 mg/kg, alpha-lipoic acid 50 mg/kg, alone or combined): 13% | anti-fatigue action in the fatigue animal model of mice (alpha-lipoic acid 50 mg/kg alone or with andrographolide 0.25 mg/kg, during fatigue stress): anti-fatigue action was produced
